Source: ChEMBL document CHEMBL1133038, “New quinolinic derivatives as centrally active antioxidants” (Bioorg Med Chem Lett, 2000)

Test system: not listed separately
Test: Safety ratio of MTC to that of PC50; Not relevant
Assay type: toxicity
Conditions: not given

Molecule | Ratio
CC(C)(C)/[N+]([O-])=C/c1ccccc1 | Not relevant

Test system: HT-22
Test: The concentration producing 50% protection against L-HCA-mediated neurotoxicity in HT-22 hippocampal cell line.
Assay type: functional, Mus musculus
Conditions: not given

Molecule | PC50 [µM]
CCOc1ccc2c(c1)C(C)CC(C)(C)N2 (stereo not drawn) | 0.86
O=c1c2ccccc2[se]n1-c1ccccc1 [EBSELEN] | 1
CCOc1ccc2c(c1)C(C)=CC(C)(C)N2 [E324] | 0.41
CCOc1c(C(C)(C)C)cc2c(c1C(C)(C)C)C=CC(C)(C)N2 | 0.1
CC(C)(C)C(=O)Oc1ccc2c(c1)C=CC1(CCCCC1)N2 | 0.73
CCOc1ccc2c(c1)C=CC(C)(C)N2 | 0.19
C1=CC2(CCCCC2)Nc2ccc(Oc3ccccc3)cc21 | 4.75
CCOc1cccc2c1NC1(C=C2)CCCCC1 | 0.37
CCOc1c(C)cc2c(c1C)C=CC1(CCCCC1)N2 | 0.03
CC1=NN(c2ccccc2)C(=O)C1 [EDARAVONE] | 70.4
CCOc1c(C(C)C)cc2c(c1C(C)C)CCC(C)(C)N2 | 0.06
CCOc1ccc2c(c1)CCC1(CCCCC1)N2 | 0.16
CCOc1ccc2c(c1)C=CC1(CCNCC1)N2 | 0.51
CCOc1ccc2c(c1)C=CC1(CCN(CC3CC3)CC1)N2 | 0.77
CCOc1c(C)cc2c(c1C)CCC(C)(C)N2 | 0.16
CCOc1c(C)c(C)c2c(c1C)C=CC(C)(C)N2 | 0.46
CCOc1c(C(C)C)cc2c(c1C(C)C)C=CC1(CCCCC1)N2 | 0.12
CCOc1c(C)cc2c(c1C)CCC1(CCCCC1)N2 | 0.01
CCOc1c(C)c(C)c2c(c1C)CCC(C)(C)N2 | 0.2
CC(C)(C)/[N+]([O-])=C/c1ccccc1 | >200
COc1ccc2c(c1)C=CC1(CCCCC1)N2 | 0.49
CCOc1c(C(C)C)cc2c(c1C(C)C)C=CC(C)(C)N2 | 0.07
CCOc1ccc2c(c1)C=CC1(CCCCC1)N2 | 0.18
CC(C)(C)Oc1ccc2c(c1)C=CC1(CCCCC1)N2 | 0.13
CCOc1c(C)cc2c(c1C)C=CC(C)(C)N2 | 0.35
CCOc1c(C)c(C)c2c(c1C)C=CC1(CCCCC1)N2 | 0.17
CCOc1cccc2c1NC(C)(C)C=C2 | 1
CCOc1c(C)c(C)c2c(c1C)CCC1(CCCCC1)N2 | 0.15

Same assay, conditions: Mus musculus

Molecule | PC50 [µM]
VITAMIN E | 0.8

Test system: HT-22
Test: Safety ratio of MTC to that of PC50
Assay type: functional, Mus musculus
Conditions: not given

Molecule | Ratio
CCOc1ccc2c(c1)C(C)CC(C)(C)N2 (stereo not drawn) | 58
O=c1c2ccccc2[se]n1-c1ccccc1 [EBSELEN] | 10
CCOc1ccc2c(c1)C(C)=CC(C)(C)N2 [E324] | 122
CCOc1c(C(C)(C)C)cc2c(c1C(C)(C)C)C=CC(C)(C)N2 | 250
CC(C)(C)C(=O)Oc1ccc2c(c1)C=CC1(CCCCC1)N2 | 1.4
CCOc1ccc2c(c1)C=CC(C)(C)N2 | 132
C1=CC2(CCCCC2)Nc2ccc(Oc3ccccc3)cc21 | 2.1
CCOc1cccc2c1NC1(C=C2)CCCCC1 | 27
CCOc1c(C)cc2c(c1C)C=CC1(CCCCC1)N2 | 333
CC1=NN(c2ccccc2)C(=O)C1 [EDARAVONE] | 2.8
CCOc1c(C(C)C)cc2c(c1C(C)C)CCC(C)(C)N2 | 167
CCOc1ccc2c(c1)CCC1(CCCCC1)N2 | 156
CCOc1ccc2c(c1)C=CC1(CCNCC1)N2 | 20
CCOc1ccc2c(c1)C=CC1(CCN(CC3CC3)CC1)N2 | 260
CCOc1c(C)cc2c(c1C)CCC(C)(C)N2 | 625
CCOc1c(C)c(C)c2c(c1C)C=CC(C)(C)N2 | 109
CCOc1c(C(C)C)cc2c(c1C(C)C)C=CC1(CCCCC1)N2 | 83
CCOc1c(C)cc2c(c1C)CCC1(CCCCC1)N2 | 1000
CCOc1c(C)c(C)c2c(c1C)CCC(C)(C)N2 | 250
COc1ccc2c(c1)C=CC1(CCCCC1)N2 | 10
CCOc1c(C(C)C)cc2c(c1C(C)C)C=CC(C)(C)N2 | 143
CCOc1ccc2c(c1)C=CC1(CCCCC1)N2 | 28
CC(C)(C)Oc1ccc2c(c1)C=CC1(CCCCC1)N2 | 77
CCOc1c(C)cc2c(c1C)C=CC(C)(C)N2 | 143
CCOc1c(C)c(C)c2c(c1C)C=CC1(CCCCC1)N2 | 59
CCOc1cccc2c1NC(C)(C)C=C2 | 100
CCOc1c(C)c(C)c2c(c1C)CCC1(CCCCC1)N2 | 67

Same assay, conditions: Mus musculus

Molecule | Ratio
VITAMIN E | > 250

Test system: HT-22
Test: The minimum tolerated concentration by MTT reduction assay in HT-22 hippocampal cell line.
Assay type: functional, Mus musculus
Conditions: not given

Molecule | MTC [µM]
CCOc1ccc2c(c1)C(C)CC(C)(C)N2 (stereo not drawn) | 50
O=c1c2ccccc2[se]n1-c1ccccc1 [EBSELEN] | 10
CCOc1ccc2c(c1)C(C)=CC(C)(C)N2 [E324] | 50
CCOc1c(C(C)(C)C)cc2c(c1C(C)(C)C)C=CC(C)(C)N2 | 25
CC(C)(C)C(=O)Oc1ccc2c(c1)C=CC1(CCCCC1)N2 | 1
CCOc1ccc2c(c1)C=CC(C)(C)N2 | 25
C1=CC2(CCCCC2)Nc2ccc(Oc3ccccc3)cc21 | 10
CCOc1cccc2c1NC1(C=C2)CCCCC1 | 10
CCOc1c(C)cc2c(c1C)C=CC1(CCCCC1)N2 | 10
CC1=NN(c2ccccc2)C(=O)C1 [EDARAVONE] | 200
CCOc1c(C(C)C)cc2c(c1C(C)C)CCC(C)(C)N2 | 10
CCOc1ccc2c(c1)CCC1(CCCCC1)N2 | 25
CCOc1ccc2c(c1)C=CC1(CCNCC1)N2 | 10
CCOc1ccc2c(c1)C=CC1(CCN(CC3CC3)CC1)N2 | 200
CCOc1c(C)cc2c(c1C)CCC(C)(C)N2 | 100
CCOc1c(C)c(C)c2c(c1C)C=CC(C)(C)N2 | 50
CCOc1c(C(C)C)cc2c(c1C(C)C)C=CC1(CCCCC1)N2 | 10
CCOc1c(C)cc2c(c1C)CCC1(CCCCC1)N2 | 10
CCOc1c(C)c(C)c2c(c1C)CCC(C)(C)N2 | 50
CC(C)(C)/[N+]([O-])=C/c1ccccc1 | >200
COc1ccc2c(c1)C=CC1(CCCCC1)N2 | 5
CCOc1c(C(C)C)cc2c(c1C(C)C)C=CC(C)(C)N2 | 10
CCOc1ccc2c(c1)C=CC1(CCCCC1)N2 | 5
CC(C)(C)Oc1ccc2c(c1)C=CC1(CCCCC1)N2 | 10
CCOc1c(C)cc2c(c1C)C=CC(C)(C)N2 | 50
CCOc1c(C)c(C)c2c(c1C)C=CC1(CCCCC1)N2 | 10
CCOc1cccc2c1NC(C)(C)C=C2 | 100
CCOc1c(C)c(C)c2c(c1C)CCC1(CCCCC1)N2 | 10

Same assay, conditions: Mus musculus

Molecule | MTC [µM]
VITAMIN E | > 200

Test system: Mus musculus
Test: Percent survival of NMRI mice after 5 hours of intraperitoneal administration of 150 mg/kg of compound.
Assay type: functional
Conditions: ip

Molecule | survival at 150 mg/kg [%]
O=c1c2ccccc2[se]n1-c1ccccc1 [EBSELEN] | 20
CCOc1ccc2c(c1)C(C)=CC(C)(C)N2 [E324] | 80
CCOc1c(C(C)(C)C)cc2c(c1C(C)(C)C)C=CC(C)(C)N2 | 60
CC(C)(C)C(=O)Oc1ccc2c(c1)C=CC1(CCCCC1)N2 | 30
CCOc1ccc2c(c1)C=CC(C)(C)N2 | 100
CCOc1cccc2c1NC1(C=C2)CCCCC1 | 60
CCOc1c(C)cc2c(c1C)C=CC1(CCCCC1)N2 | 70
CC1=NN(c2ccccc2)C(=O)C1 [EDARAVONE] | 80
CCOc1c(C(C)C)cc2c(c1C(C)C)CCC(C)(C)N2 | 40
CCOc1ccc2c(c1)CCC1(CCCCC1)N2 | 60
CCOc1c(C)cc2c(c1C)CCC(C)(C)N2 | 80
CCOc1c(C)c(C)c2c(c1C)C=CC(C)(C)N2 | 70
CCOc1c(C)cc2c(c1C)CCC1(CCCCC1)N2 | 80
CCOc1c(C)c(C)c2c(c1C)CCC(C)(C)N2 | 100
COc1ccc2c(c1)C=CC1(CCCCC1)N2 | 100
CCOc1c(C(C)C)cc2c(c1C(C)C)C=CC(C)(C)N2 | 50
CCOc1ccc2c(c1)C=CC1(CCCCC1)N2 | 80
CC(C)(C)Oc1ccc2c(c1)C=CC1(CCCCC1)N2 | 30
CCOc1c(C)cc2c(c1C)C=CC(C)(C)N2 | 100
CCOc1c(C)c(C)c2c(c1C)C=CC1(CCCCC1)N2 | 50
CCOc1c(C)c(C)c2c(c1C)CCC1(CCCCC1)N2 | 60

Test system: HT-22
Test: The concentration producing 50% toxicity in HT-22 hippocampal cell line.
Assay type: functional
Conditions: Mus musculus, read-out: TC50 (the source's name)

Molecule | CC50 [µM]
CCOc1ccc2c(c1)C(C)CC(C)(C)N2 (stereo not drawn) | 137
O=c1c2ccccc2[se]n1-c1ccccc1 [EBSELEN] | 20
CCOc1ccc2c(c1)C(C)=CC(C)(C)N2 [E324] | 103
CCOc1c(C(C)(C)C)cc2c(c1C(C)(C)C)C=CC(C)(C)N2 | 36.5
CC(C)(C)C(=O)Oc1ccc2c(c1)C=CC1(CCCCC1)N2 | 1.61
CCOc1ccc2c(c1)C=CC(C)(C)N2 | 56
C1=CC2(CCCCC2)Nc2ccc(Oc3ccccc3)cc21 | 11.2
CCOc1cccc2c1NC1(C=C2)CCCCC1 | 17.9
CCOc1c(C)cc2c(c1C)C=CC1(CCCCC1)N2 | 19.3
CC1=NN(c2ccccc2)C(=O)C1 [EDARAVONE] | > 200
CCOc1c(C(C)C)cc2c(c1C(C)C)CCC(C)(C)N2 | 18.2
CCOc1ccc2c(c1)CCC1(CCCCC1)N2 | 74.5
CCOc1ccc2c(c1)C=CC1(CCNCC1)N2 | 139
CCOc1ccc2c(c1)C=CC1(CCN(CC3CC3)CC1)N2 | 200
CCOc1c(C)cc2c(c1C)CCC(C)(C)N2 | 186
CCOc1c(C)c(C)c2c(c1C)C=CC(C)(C)N2 | 123
CCOc1c(C(C)C)cc2c(c1C(C)C)C=CC1(CCCCC1)N2 | 16.9
CCOc1c(C)cc2c(c1C)CCC1(CCCCC1)N2 | 17.6
CCOc1c(C)c(C)c2c(c1C)CCC(C)(C)N2 | 128
COc1ccc2c(c1)C=CC1(CCCCC1)N2 | 46.9
CCOc1c(C(C)C)cc2c(c1C(C)C)C=CC(C)(C)N2 | 200
CCOc1ccc2c(c1)C=CC1(CCCCC1)N2 | 17.1
CC(C)(C)Oc1ccc2c(c1)C=CC1(CCCCC1)N2 | 13.2
CCOc1c(C)cc2c(c1C)C=CC(C)(C)N2 | 182
CCOc1c(C)c(C)c2c(c1C)C=CC1(CCCCC1)N2 | 17.8
CCOc1cccc2c1NC(C)(C)C=C2 | 200
CCOc1c(C)c(C)c2c(c1C)CCC1(CCCCC1)N2 | 17.2

Test system: Mus musculus
Test: Body temperature of NMRI mice after 30 minutes of intraperitoneal administration of 150 mg/kg compound.
Assay type: functional
Conditions: not given

Molecule | change in body temperature [°C]
O=c1c2ccccc2[se]n1-c1ccccc1 [EBSELEN] | -1.85
CCOc1ccc2c(c1)C(C)=CC(C)(C)N2 [E324] | -1.85
CCOc1c(C(C)(C)C)cc2c(c1C(C)(C)C)C=CC(C)(C)N2 | -1
CC(C)(C)C(=O)Oc1ccc2c(c1)C=CC1(CCCCC1)N2 | -2.8
CCOc1ccc2c(c1)C=CC(C)(C)N2 | -1.7
CCOc1cccc2c1NC1(C=C2)CCCCC1 | -1
CCOc1c(C)cc2c(c1C)C=CC1(CCCCC1)N2 | -0.3
CC1=NN(c2ccccc2)C(=O)C1 [EDARAVONE] | -2.4
CCOc1c(C(C)C)cc2c(c1C(C)C)CCC(C)(C)N2 | -0.5
CCOc1ccc2c(c1)CCC1(CCCCC1)N2 | -0.7
CCOc1c(C)cc2c(c1C)CCC(C)(C)N2 | -0.5
CCOc1c(C)c(C)c2c(c1C)C=CC(C)(C)N2 | -2.5
CCOc1c(C)cc2c(c1C)CCC1(CCCCC1)N2 | -2.2
CCOc1c(C)c(C)c2c(c1C)CCC(C)(C)N2 | -0.2
CC(C)(C)/[N+]([O-])=C/c1ccccc1 | -2.1
COc1ccc2c(c1)C=CC1(CCCCC1)N2 | -1
CCOc1c(C(C)C)cc2c(c1C(C)C)C=CC(C)(C)N2 | -0.05
CCOc1ccc2c(c1)C=CC1(CCCCC1)N2 | -0.2
CC(C)(C)Oc1ccc2c(c1)C=CC1(CCCCC1)N2 | -0.2
CCOc1c(C)cc2c(c1C)C=CC(C)(C)N2 | -0.9
CCOc1c(C)c(C)c2c(c1C)C=CC1(CCCCC1)N2 | -0.8
CCOc1c(C)c(C)c2c(c1C)CCC1(CCCCC1)N2 | -0.8

Test system: Mus musculus
Test: The compound was tested for % survival of NMRI mice after 5 hours of intraperitoneal administration of 150 mg/kg of dose; 30/60
Assay type: functional
Conditions: ip

Molecule | survival at 150 mg/kg [%]
CC(C)(C)/[N+]([O-])=C/c1ccccc1 | 50
